# The source made the active and inactive calls. The rule behind the calls is not given here.
# System: L. donovani-infected THP-1 macrophages, intracellular amastigote imaging
# Test: intracellular L. donovani amastigote inhibition, imaging, THP-1 host macrophages, host toxicity (AID 1159564)
# [1] = measured here: THP-1 host cell toxicity
# [2] = measured here: amastigotes per macrophage
Structure (SMILES),IC50,IC50 [1] [µM],IC50 [2] [µM]
COC(=O)c1ccc(-c2cnc3ccc(NCc4ccccn4)nn23)cc1,> 50 µM (inactive),13,16
CN(C)Cc1ccc(-c2ccc(S(=O)(=O)NCC3CCCO3)c(F)c2)cc1 (centres undefined),> 63 µM (inactive),63,> 63
COc1cccc(Nc2cc(C)nc(-c3ccccn3)n2)c1,2 µM,> 50,1.3
CC(Cn1ccnc1)NC(=O)C1CC1c1cccc(Cl)c1Cl (centres undefined),> 50 µM (inactive),> 50,10
Cn1cncc1CN1CCC2(CC1)COC(Cc1ccccc1)C2 (centres undefined),> 50 µM (inactive),> 50,–
Cc1cc(C)c(C#N)c(SCC(=O)c2ccc3c(c2)OCO3)n1,> 50 µM (inactive),> 50,> 50
COc1ccnc2[nH]cc(-c3cc(C(=O)N[C@H](CO)c4ccccc4)co3)c12,7.9 µM,0.79,2
N#Cc1cnc(Nc2cccc(CCN3CCOCC3)c2)nc1Nc1ccccc1C(N)=O,1.6 µM,0.79,1
O=C(Nc1nc(-c2ccccn2)cs1)c1ccccc1-n1cnnn1,6.3 µM,5,4
COc1ncc(-c2ccc3nccc(-c4ccncc4)c3c2)cc1NS(=O)(=O)C1CC1,1.3 µM,1,0.32
O=C(Nc1ccc(C(=O)N2CCCC2c2ccc3c(c2)OCCCO3)cc1)c1ccco1 (centres undefined),6.3 µM,> 50,3.2
COc1cc(OC)cc(C(NS(=O)(=O)c2ccc(Cl)c(C(F)(F)F)c2)c2nccn2C)c1 (centres undefined),6.3 µM,> 50,5
Cc1c(Nc2cc(C3CC3)[nH]n2)ccc(C#N)c1Cl,40 µM,25,25
N#Cc1ccc(S(=O)(=O)N2CCC3(CCN(c4ccccc4)C3=O)CC2)cc1,> 50 µM (inactive),> 50,> 50
Cc1cc2cncn2c(C2CCCCN2C(=O)c2cccs2)n1 (centres undefined),> 50 µM (inactive),> 50,> 50
COc1ccc2ncc(Cl)c(CCN3CC[C@@H](NCc4cc5c(cn4)OCS5)[C@H](O)C3)c2n1,13 µM,25,7.9
COc1ccc(NS(=O)(=O)c2cccc(NC(=O)c3cc(F)cc(F)c3)c2)cc1,> 50 µM (inactive),> 50,20
CCc1ccc2nc(NC(=O)c3cc(N4CCOCC4)ccn3)sc2c1,1.3 µM,10,0.79
Cc1cccc(N2CCCN(Cc3c[nH]c4ccccc34)CC2)n1,10 µM,10,10
Nc1nonc1-c1nc2cncc(C(=O)N3CC[C@H](N)C3)c2n1CC1CC1,20 µM,13,40
COc1ccc(NC(=O)c2ccc(NC(=O)CN(c3ccccc3C)S(C)(=O)=O)cc2)cc1,> 50 µM (inactive),> 50,7.9
Cc1cc(NC(=O)CC2CCCCC2)n(-c2nc3c(c(=O)[nH]2)CCC3)n1,3.2 µM,4,1.6
COc1ccc(OC)c(NC(=O)c2ccc([N+](=O)[O-])o2)c1,32 µM,20,16
O=C(CN1CCN(c2ccccn2)CC1)Nc1cc(S(=O)(=O)N2CCCCCC2)ccc1Cl,6.3 µM,50,1.3
Cc1cc(-c2cccc3ccccc23)nc2nc(N)nc(N)c12,5 µM,50,1

Structure (SMILES),IC50,IC50 [1] [µM],IC50 [2] [µM]
O=C(Nc1ccc(Br)cn1)c1ccc(Cn2cnc([N+](=O)[O-])n2)cc1,> 50 µM (inactive),> 50,> 50
Cc1[nH]c2ccccc2c(=O)c1Cc1c(C)[nH]c2ccccc2c1=O,> 50 µM (inactive),> 50,> 50
COc1cc(C(C)C)c(S(C)(=O)=O)cc1C(=O)N1CCN(c2ccccc2Cl)CC1,16 µM,16,13
Nc1nc(-c2ccccn2)nc(-n2nc(-c3ccccc3)cc2N)n1,0.79 µM,10,0.79
Cc1ccc(NC(=O)c2ccnc(N3CCCC3)c2)cc1-c1cc(C(N)=O)ccc1C,40 µM,32,25
N#Cc1cccc(Nc2nccc(N3CCC(NS(=O)(=O)c4cccc(C#N)c4)CC3)n2)c1,10 µM,> 50,6.3
Cn1nccc1-c1cc(OC(CN)c2ccccc2)cnc1-c1ccco1 (centres undefined),> 50 µM (inactive),16,32
Cc1cccc(NS(=O)(=O)c2ccc3c(c2)C(=O)c2cc(S(=O)(=O)Nc4cccc(C)c4C)ccc2-3)c1C,> 50 µM (inactive),> 50,> 50
CC(C)(C)C(O)(CCc1ccc(Cl)cc1)Cn1cncn1 (centres undefined),> 50 µM (inactive),> 50,> 50
Cc1ccc(S(=O)(=O)Cn2nnnc2C(c2cccnc2)N2CCN(c3ccccc3)CC2)cc1 (centres undefined),> 50 µM (inactive),> 50,> 50
Cc1cc(Nc2cc(C3CC3)[nH]n2)nc(N2CCCC2)n1,0.16 µM,0.13,0.05
CCCn1c(NC(=O)Cc2ccc(Cl)cc2)nc2ccccc21,5 µM,> 50,3.2
O=C(NNC(=O)c1ccccn1)c1ccc(-c2ccccc2)cc1,6.3 µM,3.2,3.2
CCS(=O)(=O)c1cccc(C(=O)Nc2nc(-c3ccccn3)cs2)c1,4 µM,20,3.2
Cn1ccnc1-c1nc(NCc2ccccc2Cl)cc(C2CC2)n1,0.63 µM,7.9,0.2
O=C(Nc1nc(-c2ccccn2)cs1)C1CCc2ccccc2C1 (centres undefined),0.63 µM,7.9,0.4
CN(Cc1ccccc1)Cc1nnnn1C1CCN(Cc2ccc(-n3ccnc3)cc2)CC1,> 50 µM (inactive),32,> 50
O=C(Nc1n[nH]c(-c2ccccn2)n1)C1CC1c1ccccc1 (centres undefined),7.9 µM,20,7.9
CC1=NN(C(=O)CCn2cnc([N+](=O)[O-])n2)C(O)(C(F)(F)F)C1 (centres undefined),> 50 µM (inactive),> 50,> 50
CNC(=O)C1Cc2ccccc2N1C(=O)Cc1ccc(OC)cc1 (centres undefined),7.9 µM,7.9,13
c1ccc(CNc2cccc3ccncc23)cc1,7.9 µM,50,5
N#Cc1cc(N2CCCC2=O)ccc1Sc1ccccc1CO,> 50 µM (inactive),> 50,> 50
CCCc1cc(C(=O)Nc2ncc(-c3cccc(Br)c3)n2C)n[nH]1,5 µM,32,4
CC(=O)NCCNc1cc(-c2ccnc(Nc3cccc(Cl)c3)n2)ccn1,0.25 µM,0.1,0.1
CC(C)c1cc(Nc2cc(Cc3ccccc3)nc(NC3CCC(O)CC3)n2)n[nH]1 (centres undefined),0.063 µM,0.02,0.04

# — PubChem BioAssay AID1159564 (GlaxoSmithKline (GSK), 2015)
